In ChEMBL document CHEMBL1201862, “PubChem BioAssay data set” (2004):
The source made the active and inactive calls.

What was measured:
[1] = CRF-BP/CRF-R2 complex antagonists, dose response, cell-based, uHTS hits, 384-well (AID 651639); type: functional, Homo sapiens; details: read-out: IC50_Mean
[2] = molecular target: T1, Corticotropin-releasing factor receptor 2/Corticotropin-releasing factor-binding protein (Homo sapiens, UniProt P24387+Q13324); assay: Dose Response confirmation of uHTS hits for small molecule antagonists of the CRF-binding protein and CRF-R2 receptor complex.; type: functional; details: read-out: IC50_Mean
T1 sequence (Q13324 whole entry): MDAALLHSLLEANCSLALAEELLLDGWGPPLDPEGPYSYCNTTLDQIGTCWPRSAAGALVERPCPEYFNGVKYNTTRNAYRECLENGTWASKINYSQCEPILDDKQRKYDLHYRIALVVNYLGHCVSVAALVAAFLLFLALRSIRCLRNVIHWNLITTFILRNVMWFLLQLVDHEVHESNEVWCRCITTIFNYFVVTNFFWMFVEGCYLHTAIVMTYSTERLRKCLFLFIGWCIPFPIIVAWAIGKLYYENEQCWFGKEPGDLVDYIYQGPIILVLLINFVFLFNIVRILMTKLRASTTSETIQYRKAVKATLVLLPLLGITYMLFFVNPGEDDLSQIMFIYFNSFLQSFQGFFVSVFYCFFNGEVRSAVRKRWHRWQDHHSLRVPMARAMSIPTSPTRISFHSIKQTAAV
T1 sequence (P24387 whole entry): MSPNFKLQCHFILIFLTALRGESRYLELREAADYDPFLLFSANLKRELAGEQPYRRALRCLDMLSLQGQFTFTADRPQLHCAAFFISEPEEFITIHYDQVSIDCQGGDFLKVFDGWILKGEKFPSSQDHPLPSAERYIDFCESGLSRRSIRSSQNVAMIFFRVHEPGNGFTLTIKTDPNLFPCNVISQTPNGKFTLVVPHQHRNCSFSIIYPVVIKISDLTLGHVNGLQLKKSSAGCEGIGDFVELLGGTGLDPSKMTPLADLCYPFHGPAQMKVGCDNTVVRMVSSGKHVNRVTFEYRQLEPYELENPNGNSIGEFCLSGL

[3] = molecular target: T1, Corticotropin-releasing factor receptor 2/Corticotropin-releasing factor-binding protein; assay: activators of CRF receptor 2 with binding protein – uHTS hits, confirmation (AID 602473); type: functional; details: read-out: EC50_Mean
Fatty acid synthase [4] = molecular target: T2, Fatty acid synthase (Homo sapiens, UniProt P49327); assay: FAS thioesterase domain inhibitors, dose response, biochemical, kinetic fluorescence intensity (AID 624326); type: functional;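 note: rate of fluorescence rise from hydrolysis of a fluorogenic O-methyl fluorescein ester substrate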
T2 sequence (P49327 whole entry, the tested form may be a part): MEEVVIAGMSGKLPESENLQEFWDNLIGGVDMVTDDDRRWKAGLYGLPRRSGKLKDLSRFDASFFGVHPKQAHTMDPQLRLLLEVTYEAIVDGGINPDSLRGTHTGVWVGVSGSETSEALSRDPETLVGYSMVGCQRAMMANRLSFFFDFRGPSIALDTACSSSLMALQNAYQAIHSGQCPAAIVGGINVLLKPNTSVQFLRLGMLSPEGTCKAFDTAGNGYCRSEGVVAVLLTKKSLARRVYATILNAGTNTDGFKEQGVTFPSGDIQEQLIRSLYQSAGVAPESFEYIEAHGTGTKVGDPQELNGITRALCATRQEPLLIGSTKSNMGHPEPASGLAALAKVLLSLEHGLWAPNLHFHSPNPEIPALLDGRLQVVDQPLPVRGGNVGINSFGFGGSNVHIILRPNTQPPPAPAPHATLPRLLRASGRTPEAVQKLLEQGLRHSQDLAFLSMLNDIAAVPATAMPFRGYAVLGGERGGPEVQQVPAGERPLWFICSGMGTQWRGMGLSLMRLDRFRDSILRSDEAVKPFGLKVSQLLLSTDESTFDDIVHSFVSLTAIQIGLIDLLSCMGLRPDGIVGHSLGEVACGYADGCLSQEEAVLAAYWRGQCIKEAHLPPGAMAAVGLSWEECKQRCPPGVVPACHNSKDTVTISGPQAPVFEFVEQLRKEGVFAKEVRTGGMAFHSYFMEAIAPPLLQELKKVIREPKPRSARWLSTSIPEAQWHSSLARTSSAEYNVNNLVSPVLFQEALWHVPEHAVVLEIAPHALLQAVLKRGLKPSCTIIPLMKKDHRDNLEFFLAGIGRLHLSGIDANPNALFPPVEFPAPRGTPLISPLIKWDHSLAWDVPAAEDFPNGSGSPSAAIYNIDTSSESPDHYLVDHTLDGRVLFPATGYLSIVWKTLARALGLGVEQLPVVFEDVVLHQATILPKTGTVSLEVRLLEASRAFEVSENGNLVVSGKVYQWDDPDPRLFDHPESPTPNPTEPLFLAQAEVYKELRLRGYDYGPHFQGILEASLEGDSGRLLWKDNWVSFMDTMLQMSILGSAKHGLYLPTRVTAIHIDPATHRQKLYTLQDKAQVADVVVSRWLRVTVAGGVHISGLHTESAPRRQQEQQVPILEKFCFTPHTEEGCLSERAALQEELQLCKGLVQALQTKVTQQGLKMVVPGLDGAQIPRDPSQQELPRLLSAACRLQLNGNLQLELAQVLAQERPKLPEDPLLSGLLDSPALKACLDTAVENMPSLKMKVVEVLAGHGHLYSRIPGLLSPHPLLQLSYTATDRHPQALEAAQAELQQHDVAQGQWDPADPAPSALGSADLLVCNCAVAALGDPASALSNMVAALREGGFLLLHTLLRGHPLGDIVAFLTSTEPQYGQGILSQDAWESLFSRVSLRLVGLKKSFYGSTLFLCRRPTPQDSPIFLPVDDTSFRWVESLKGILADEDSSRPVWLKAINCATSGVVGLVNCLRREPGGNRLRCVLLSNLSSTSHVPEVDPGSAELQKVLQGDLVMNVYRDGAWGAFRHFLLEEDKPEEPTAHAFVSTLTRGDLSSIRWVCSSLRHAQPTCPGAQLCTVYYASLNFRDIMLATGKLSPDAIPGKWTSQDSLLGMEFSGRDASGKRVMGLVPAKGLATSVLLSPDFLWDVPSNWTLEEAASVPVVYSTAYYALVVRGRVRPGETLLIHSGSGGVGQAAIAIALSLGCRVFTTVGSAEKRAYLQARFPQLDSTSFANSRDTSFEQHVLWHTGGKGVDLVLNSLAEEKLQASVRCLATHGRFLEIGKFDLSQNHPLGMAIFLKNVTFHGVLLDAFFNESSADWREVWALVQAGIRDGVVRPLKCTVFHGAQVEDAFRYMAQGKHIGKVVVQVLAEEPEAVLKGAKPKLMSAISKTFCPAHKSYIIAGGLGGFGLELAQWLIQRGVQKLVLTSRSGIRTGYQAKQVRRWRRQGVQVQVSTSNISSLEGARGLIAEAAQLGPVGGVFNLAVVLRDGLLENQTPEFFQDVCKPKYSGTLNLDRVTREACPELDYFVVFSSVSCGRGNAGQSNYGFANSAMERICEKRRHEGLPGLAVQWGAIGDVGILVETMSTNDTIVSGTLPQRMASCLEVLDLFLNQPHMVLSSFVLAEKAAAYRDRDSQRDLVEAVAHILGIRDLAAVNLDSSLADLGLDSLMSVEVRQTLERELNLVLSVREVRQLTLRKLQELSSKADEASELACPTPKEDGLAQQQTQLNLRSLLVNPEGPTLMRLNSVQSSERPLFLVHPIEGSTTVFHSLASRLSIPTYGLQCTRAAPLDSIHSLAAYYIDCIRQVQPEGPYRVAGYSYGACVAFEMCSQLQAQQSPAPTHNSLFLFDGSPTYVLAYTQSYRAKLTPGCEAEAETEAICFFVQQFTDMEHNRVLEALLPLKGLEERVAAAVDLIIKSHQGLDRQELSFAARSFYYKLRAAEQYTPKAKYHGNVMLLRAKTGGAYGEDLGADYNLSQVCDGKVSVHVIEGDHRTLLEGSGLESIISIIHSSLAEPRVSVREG

Fatty acid synthase [5] = molecular target: T2, Fatty acid synthase; assay: FAS thioesterase domain inhibitors, dose response, biochemical, endpoint fluorescence intensity, uHTS hits (AID 624327); type: functional;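 note: fluorescence from hydrolysis of an O-methyl fluorescein acyl ester substrate by the enzyme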
[6] = molecular target: T3, High affinity choline transporter 1 (Homo sapiens, UniProt Q9GZV3); assay: CHT inhibitors, dose response, cell-based, 10-point CRC, membrane potential dye (AID 588401); type: functional;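 note: membrane potential dye fluorescence of choline-evoked depolarization via CHT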
T3 sequence (Q9GZV3 whole entry): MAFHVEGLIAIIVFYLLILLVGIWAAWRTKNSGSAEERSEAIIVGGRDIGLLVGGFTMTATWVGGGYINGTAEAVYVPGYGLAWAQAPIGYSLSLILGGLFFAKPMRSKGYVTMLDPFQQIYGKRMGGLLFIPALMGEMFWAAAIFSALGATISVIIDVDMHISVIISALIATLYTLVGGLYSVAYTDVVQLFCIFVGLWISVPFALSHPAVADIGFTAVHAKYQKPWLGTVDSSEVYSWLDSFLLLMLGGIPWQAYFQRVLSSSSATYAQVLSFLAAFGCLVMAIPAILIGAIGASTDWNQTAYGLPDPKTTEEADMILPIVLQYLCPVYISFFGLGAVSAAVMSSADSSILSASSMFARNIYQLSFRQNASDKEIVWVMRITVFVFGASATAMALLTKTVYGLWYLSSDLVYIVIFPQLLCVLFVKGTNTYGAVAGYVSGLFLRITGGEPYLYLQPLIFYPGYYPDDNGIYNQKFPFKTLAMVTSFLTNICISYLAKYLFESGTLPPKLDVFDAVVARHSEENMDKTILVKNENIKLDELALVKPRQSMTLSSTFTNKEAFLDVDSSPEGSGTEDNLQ

[7] = molecular target: T3, High affinity choline transporter 1; assay: CHT inhibitors, dose response, cell-based, 5-point CRC, membrane potential dye (AID 504840); type: functional
BJ [8] = assay: cytotoxicity toward BJ-TERT fibroblasts, dose response, cell-based, RAS-independent, luminescence (AID 1933); type: functional; details: Homo sapiens
BJ [9] = assay: cytotoxicity toward BJ-TERT-LT-ST fibroblasts, dose response, cell-based, RAS-independent, luminescence (AID 1935); type: functional; details: Homo sapiens;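 note: BJ fibroblasts immortalized with TERT plus LT and ST oncogenes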
[10] = cytotoxicity toward DRD oncogenic fibroblasts, dose response, cell-based, non-viral oncogenic, luminescence (AID 1934); type: functional; details: Homo sapiens
BJ [11] = assay: cells; type: functional, cell-based; details: Homo sapiens
[12] = Fluorescence-based cell-based high throughput dose response assay for inhibitors of the interaction of nucleotide-binding oligomerization domain containing 2 (NOD2) and the receptor-interacting serine-threonine kinase 2 (RIPK2).; type: functional; details: Homo sapiens
[13] = Counterscreen for inhibitors of Trypanosoma brucei methionyl tRNA synthetase (MetRS): Luminescence-based cell-based high throughput dose response assay to identify compounds that are cytotoxic to Jurkat human T lymphocyte cells.; type: functional
[14] = molecular target: T4, Methionyl-tRNA synthetase, putative (Trypanosoma brucei brucei, UniProt Q38C91); type: functional, Trypanosoma brucei brucei strain 927/4 GUTat10.1
T4 sequence (Q38C91 whole entry): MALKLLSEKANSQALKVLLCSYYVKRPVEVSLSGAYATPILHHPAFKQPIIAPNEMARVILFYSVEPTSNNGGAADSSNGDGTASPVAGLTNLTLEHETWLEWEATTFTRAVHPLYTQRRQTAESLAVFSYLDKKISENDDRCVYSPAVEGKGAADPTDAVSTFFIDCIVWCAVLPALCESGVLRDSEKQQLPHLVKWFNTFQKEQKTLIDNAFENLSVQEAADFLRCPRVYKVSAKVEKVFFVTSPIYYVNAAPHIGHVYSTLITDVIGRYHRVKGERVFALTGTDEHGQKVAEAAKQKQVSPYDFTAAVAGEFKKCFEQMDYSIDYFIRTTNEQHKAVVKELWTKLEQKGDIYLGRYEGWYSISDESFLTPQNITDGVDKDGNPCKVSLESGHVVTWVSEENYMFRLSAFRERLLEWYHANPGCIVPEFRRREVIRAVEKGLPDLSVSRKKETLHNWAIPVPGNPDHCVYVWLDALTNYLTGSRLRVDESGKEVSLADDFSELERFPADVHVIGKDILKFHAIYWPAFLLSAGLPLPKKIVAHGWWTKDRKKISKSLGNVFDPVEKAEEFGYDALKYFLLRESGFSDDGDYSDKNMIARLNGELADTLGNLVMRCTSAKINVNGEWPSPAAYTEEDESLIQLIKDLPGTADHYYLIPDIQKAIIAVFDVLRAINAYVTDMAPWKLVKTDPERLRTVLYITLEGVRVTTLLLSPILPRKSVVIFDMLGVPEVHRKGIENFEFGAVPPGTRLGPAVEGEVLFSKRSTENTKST

[15] = molecular target: T4, Methionyl-tRNA synthetase, putative; type: functional, Trypanosoma brucei brucei strain 927/4 GUTat10.1; remark: listed apart in the source
[16] = HEK293T cytotoxicity, dose response, cytotoxicity control for miR-122 modulator project, cell-based, inhibitor set, cherry-pick, set 2 (AID 720697); type: functional
[17] = molecular target: T5, Long-chain-fatty-acid--AMP ligase FadD28 (Mycobacterium tuberculosis, UniProt P9WQ59); assay: Fluorescence polarization aasay to screen for inhibitors that compete for the binding of FadD28 to a bisubstrate Measured in Biochemical System Using Plate Reader - 2147-01_Inhibitor_Dose_CherryPick_Activity.; type: functional, Mycobacterium tuberculosis H37Rv
T5 sequence (P9WQ59 whole entry): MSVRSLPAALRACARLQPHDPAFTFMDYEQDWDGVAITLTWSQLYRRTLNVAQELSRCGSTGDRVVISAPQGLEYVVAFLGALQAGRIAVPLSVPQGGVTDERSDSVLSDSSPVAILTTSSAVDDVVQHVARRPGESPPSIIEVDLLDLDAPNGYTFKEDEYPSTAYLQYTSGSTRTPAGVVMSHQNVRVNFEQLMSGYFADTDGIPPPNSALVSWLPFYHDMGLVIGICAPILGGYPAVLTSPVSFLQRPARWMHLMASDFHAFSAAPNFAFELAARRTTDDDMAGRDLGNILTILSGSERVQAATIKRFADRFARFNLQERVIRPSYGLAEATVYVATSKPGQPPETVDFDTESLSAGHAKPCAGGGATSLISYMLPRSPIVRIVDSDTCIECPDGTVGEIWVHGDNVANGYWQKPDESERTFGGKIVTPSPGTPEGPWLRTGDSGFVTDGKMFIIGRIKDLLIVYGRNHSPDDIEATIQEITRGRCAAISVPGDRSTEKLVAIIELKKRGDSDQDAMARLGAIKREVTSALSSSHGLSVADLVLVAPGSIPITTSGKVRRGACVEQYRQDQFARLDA

cells = type: functional, cell-based
[18] = molecular target: T6, Nuclear receptor subfamily 0 group B member 1 (Homo sapiens, UniProt P51843); type: functional, cell-based;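 note: HEK293T cells transfected with SF-1 and DAX-1 plus StAR promoter luciferase reporter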
T6 sequence (P51843 whole entry): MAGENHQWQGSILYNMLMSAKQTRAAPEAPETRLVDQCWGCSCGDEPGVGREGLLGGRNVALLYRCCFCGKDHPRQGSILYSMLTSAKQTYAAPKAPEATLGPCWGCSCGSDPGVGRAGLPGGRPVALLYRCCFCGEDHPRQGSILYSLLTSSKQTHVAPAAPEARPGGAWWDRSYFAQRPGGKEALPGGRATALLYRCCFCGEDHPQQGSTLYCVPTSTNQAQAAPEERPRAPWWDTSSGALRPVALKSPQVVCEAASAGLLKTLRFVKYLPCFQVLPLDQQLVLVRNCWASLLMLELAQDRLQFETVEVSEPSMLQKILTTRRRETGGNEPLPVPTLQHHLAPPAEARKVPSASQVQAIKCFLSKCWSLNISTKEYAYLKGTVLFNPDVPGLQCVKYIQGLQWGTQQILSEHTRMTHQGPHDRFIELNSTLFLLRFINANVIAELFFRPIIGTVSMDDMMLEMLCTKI

[19] = ADAM10 inhibitors, peptide cleavage, dose response, biochemical, QFRET (AID 743254);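 note: ADAM10 enzyme with the DM2 quenched FRET peptide as substrate; EDANS fluorescence gain as the protease cuts the substrate; inhibitor potency against ADAM10 proteolytic activity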
Genome polyprotein = Genome polyprotein (dengue virus type 2, UniProt P29990); assay: Dengue-2 NS5 methyltransferase inhibitors, primary screen, biochemical, confirmation dose response (AID 588689); type: functional
Genome polyprotein, sequence (P29990 2492-3391 limits assumed): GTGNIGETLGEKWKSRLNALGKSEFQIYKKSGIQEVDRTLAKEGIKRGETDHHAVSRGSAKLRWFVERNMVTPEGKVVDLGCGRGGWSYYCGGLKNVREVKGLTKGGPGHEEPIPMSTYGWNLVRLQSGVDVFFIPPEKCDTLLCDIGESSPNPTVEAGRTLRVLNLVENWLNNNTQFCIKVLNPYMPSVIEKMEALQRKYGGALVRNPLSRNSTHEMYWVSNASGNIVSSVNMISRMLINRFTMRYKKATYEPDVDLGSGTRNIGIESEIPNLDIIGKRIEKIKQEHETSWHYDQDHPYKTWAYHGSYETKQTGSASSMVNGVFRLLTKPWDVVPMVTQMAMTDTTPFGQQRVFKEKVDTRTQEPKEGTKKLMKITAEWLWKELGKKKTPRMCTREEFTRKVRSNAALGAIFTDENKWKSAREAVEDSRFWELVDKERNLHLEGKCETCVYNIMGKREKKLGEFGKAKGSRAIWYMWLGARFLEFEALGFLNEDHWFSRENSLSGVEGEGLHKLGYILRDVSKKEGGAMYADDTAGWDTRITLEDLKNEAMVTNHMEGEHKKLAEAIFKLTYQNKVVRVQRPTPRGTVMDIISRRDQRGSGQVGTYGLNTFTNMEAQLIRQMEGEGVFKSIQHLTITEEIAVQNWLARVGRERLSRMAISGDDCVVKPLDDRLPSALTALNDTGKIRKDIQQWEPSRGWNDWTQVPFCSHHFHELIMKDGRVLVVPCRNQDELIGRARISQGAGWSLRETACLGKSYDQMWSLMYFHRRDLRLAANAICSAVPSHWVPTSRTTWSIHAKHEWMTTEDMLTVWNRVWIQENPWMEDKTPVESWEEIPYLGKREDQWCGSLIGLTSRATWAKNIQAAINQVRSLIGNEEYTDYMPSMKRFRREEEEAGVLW

[20] = molecular target: Heat shock protein HSP 90-alpha (Homo sapiens, UniProt P07900); type: functional, organism-based

COc1ccc(-c2c(C)nn3c(N4CCCCCC4)cc(C)nc23)cc1OC
IC50 [1]: > 20 µM (inactive) | IC50 [2]: 21.4 µM (active) | EC50 [3]: > 53 µM (inactive)

Cn1c(/C=C/N(Cc2ccccc2)c2ccccc2)c([N+](=O)[O-])c(=O)n(C)c1=O
IC50 (Fatty acid synthase [4]): 16.3 µM (active) | IC50 (Fatty acid synthase [5]): 18.8 µM (active) | IC50 [6]: 3.12 µM (active) | IC50 [7]: 2.98 µM (active)

C=CCOc1cccc(C(=O)/C=C2/C(=O)Nc3ccccc32)c1
EC50 (BJ [8]): 5.47 µM (inconclusive) | EC50 (BJ [9]): 7.99 µM (active) | EC50 [10]: 9.43 µM (inconclusive) | EC50 (BJ [11]): 31.5 µM (inconclusive) | IC50 [12]: 5.51 µM (active)

O=C(CSc1ccc(-c2nc3ccccc3[nH]2)cn1)Nc1ccc(S(=O)(=O)NC2CC2)cc1
IC50 [13]: 83.3 µM (inactive) | IC50 [14]: 4.53 µM (active) | IC50 [15]: 3.58 µM (active)

Cc1ccc(-n2c(S)nnc2Cc2ccccc2)cc1
AC50 [16]: 3.74 µM (active)

O=C(NN1C(=O)/C(=C/c2ccc(O)cc2)SC1=S)c1cccc(O)c1
IC50 [13]: 83.3 µM (inactive) | IC50 [14]: 30.9 µM (inactive) | AC50 [17]: 62 µM (active) | IC50 [15]: 44.6 µM (inactive)

Clc1ccc(OCc2cc(-c3ccccc3)no2)c(Cl)c1
IC50 (cells): > 67.5 µM (inactive) | IC50 [18]: > 67.5 µM (inactive)

FC(F)(F)c1cc(CCN2C(S)=NC[C@@H]2Cc2ccccc2)cc(C(F)(F)F)c1
IC50 [19]: 11.8 µM (inactive)

Cc1cc(Cl)c2oc(C(=O)N(C)C3CCOC3)c(C)c2c1 (stereo unspecified)
IC50 (cells): > 67.5 µM (inactive) | IC50 [18]: > 67.5 µM (inactive)

COC(=O)c1sccc1NC(=O)Nc1ccc(C)cc1
IC50 (cells): > 67.6 µM (inactive) | IC50 [18]: > 67.6 µM (inactive)

Cc1ccc(S(=O)(=O)Nc2ccc3ccccc3c2[N+](=O)[O-])cc1
IC50 [1]: 14.9 µM (active) | IC50 (Genome polyprotein): 31.7 µM (active) | IC50 [2]: 18.7 µM (active) | AC50 [20]: 8.19 µM (active) | EC50 [3]: > 53 µM (inactive)

COCC(=O)NC[C@@H]1[C@H](c2ccc(C3=CCCC3)cc2)[C@H](CO)N1C(=O)C1CC1
AC50 [16]: 0.499 µM (active)

COc1cc(CCc2ccccc2)c(C(=O)O)c(O)c1CC=C(C)C [AMORFRUTIN A]
IC50 [1]: 12.1 µM (active) | IC50 [2]: 7.93 µM (active) | EC50 [3]: 35.2 µM (active)
